Assay results taken from article PMC7520498, “Chemical Constituents from the Whole Plant of Cuscuta reflexa” (Natural Products and Bioprospecting, 2020).
In brackets after ≈: the same amount, converted by molar mass.

Assays:
[1] = test system: rabbit platelet aggregation induced by collagen; test: Rabbit platelet aggregation induced by collagen; format: cell-based; conditions: collagen 4 μg/mL; for IC50: Oryctolagus cuniculus, Platelet, read-out: IC50 against rabbit platelet aggregation induced by collagen
Experimental: (§1) Compounds 1–15 and 1a were also evaluated for their inhibitory activity against rabbit platelet aggregation induced by thrombin (1 U/mL), platelet-activating factor (PAF, 0.4 μg/mL), arachidonate (AA, 0.5 mM), or collagen (4 μg/mL).
(§2) The inhibitory effects of the compounds against rabbit platelet aggregation induced by thrombin (1 U/mL), PAF (0.4 μg/mL), AA (0.5 mM), or collagen (4 μg/mL) were evaluated according to published methods.

[2] = test system: rabbit platelet aggregation induced by arachidonate (AA); test: Rabbit platelet aggregation induced by arachidonate (AA); format: cell-based; conditions: Oryctolagus cuniculus, AA 0.5 mM
Experimental: as §1, §2

[3] = target: T1, porcine pancreatic lipase (PPL) (Sus scrofa, UniProt P00591); test: In vitro porcine pancreatic lipase inhibition assay (p-NPB substrate); format: biochemical
T1 sequence (P00591 1-450): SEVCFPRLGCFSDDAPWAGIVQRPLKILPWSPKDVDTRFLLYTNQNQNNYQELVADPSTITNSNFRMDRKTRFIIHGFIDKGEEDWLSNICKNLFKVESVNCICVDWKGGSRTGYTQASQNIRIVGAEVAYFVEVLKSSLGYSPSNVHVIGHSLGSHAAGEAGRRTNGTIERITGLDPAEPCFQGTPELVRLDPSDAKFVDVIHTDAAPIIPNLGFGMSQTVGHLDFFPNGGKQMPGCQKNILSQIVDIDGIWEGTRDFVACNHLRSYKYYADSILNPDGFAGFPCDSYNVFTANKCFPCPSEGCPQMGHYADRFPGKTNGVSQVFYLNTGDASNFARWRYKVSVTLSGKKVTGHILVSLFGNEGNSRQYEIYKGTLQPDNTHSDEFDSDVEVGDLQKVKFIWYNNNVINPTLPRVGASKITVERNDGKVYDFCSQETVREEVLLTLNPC
Experimental: For lipase inhibition tests of each compound, porcine pancreatic lipase was used. p-Nitrophenyl butyrate (p-NPB) was used as the substrate. First, 5 μL of the lipase solution (40 U/mL) in Tris–HCl buffer (100 mM Tris–HCl, 5 mM CaCl2; pH 7.0) was added to a 96-well microtiter plate. Each compound in 1 μL of DMSO and 184 μL of Tris–HCl buffer were added and mixed with the enzyme buffer to start the reaction. After incubation at 37 °C for 15 min, 10 μL of the substrate solution (10 mM p-NPB in dimethyl formamide) was added. The enzymatic reaction was carried out for 15 min at 37 °C. The hydrolysis of p-NPB to p-nitrophenol was monitored at 400 nm using a spectrophotometer.

CC(=O)Oc1ccccc1C(=O)O [aspirin, reference compound]
IC50 [1]: 33.3 ± 1.3 µg/mL (≈ 185 µM)
inhibition at 40 µg/mL ([2]; at 40 μg/mL): 88.1 ± 1.1%

CC(=O)Oc1ccc(/C=C/C(=O)OC[C@H]2O[C@@H](Oc3cc(C)oc(=O)c3)[C@H](OC(C)=O)[C@@H](OC(C)=O)[C@@H]2OC(C)=O)cc1 [Compound 1a]
IC50 [1]: 63.8 ± 4.4 µg/mL (≈ 106 µM)
IC50 ([2]; read-out: IC50 against rabbit platelet aggregation induced by AA): 72.6 ± 10.5 µg/mL (≈ 120 µM)

Cc1cc(OC2OC(COC(=O)C=Cc3ccc(O)cc3)C(O)C(O)C2O)cc(=O)o1 (centres unmarked) [Compound 1, cuscutaroside A]
IC50 [1]: 291 ± 47.9 µg/mL (≈ 671 µM)

7-oxo-β-sitosterol 3-O-β-D-glucopyranoside [Compound 4]
PPL inhibition ([3]; at a concentration of 100 μg/mL): 12 ± 2%

CCC(CCC(C)C1CCC2C3C(OC)C=C4CC(OC5OC(CO)C(O)C(O)C5O)CCC4(C)C3CCC12C)C(C)C (stereo not drawn) [Compound 3, 7β-methoxy-β-sitosterol 3-O-β-glucopyranoside]
IC50 ([3]; porcine pancreatic lipase, p-NPB substrate, read-out: PPL inhibitory activity IC50 (converted)): 111 µM

scrophenoside B [Compound 8]
IC50 against rabbit platelet aggregation induced by collagen [1]: 180.5 ± 6.7 µg/mL
